From US20050123604A1, “Pharmaceutical compositions” (priority 2002, published 2005)

What was measured:
[1] = chemical stability of drug substance in tablets as a function of residual moisture (LOD); type: physicochemical; details: LOD kept at about 2.1%-4.5% (200 mg tablets) or about 1.7%-3.5% (400 mg, 65% drug-loaded tablets)
Procedure: That is, certain degradation products of 5-methyl-2-(2′-chloro-6′-fluoroanilino)phenylacetic acid are formed at a greater rate in dryer tablets, which is contrary to the typical behavior of drug substances. In general, moisture, in the form of water, is detrimental to drug stability, and packaging for pharmaceutical formulations frequently contains some form of desiccant material to minimize moisture levels.
Tablets with about 200 mg of active agent preferably have an LOD of 3.5% with a desirable range between about 2.1% and about 4.5%. 65% drug-loaded tablets with about 400 mg of active agent preferably have an LOD of about 2.5%, with a desirable range between about 1.7% and about 3.5%.
The compositions and methods of the invention provide solid pharmaceutical compositions for oral administration comprising 5-methyl-2-(2′-chloro-6′-fluoroanilino)phenylacetic acid with minimal levels of total degradation products Oral dosage levels for 5-methyl-2-(2′-chloro-6′-fluoroanilino)phenylacetic acid are of the order of between about 200 and about 1200 mg per patient per day. In a preferred embodiment, the effective amount is between about 200 and about 800 mg. In a more preferred embodiment, the effective amount is between about 200 and about 600 mg. In an even more preferred embodiment, the effective amount is between about 200 and about 400 mg. […]

[2] = blood plasma half life after oral administration; type: in vivo; details: oral administration of immediate release composition
Source text: The pharmaceutical compositions useful in the practice of the invention are for oral administration and are “immediate release” dosage forms. That is, the pharmaceutical compositions useful in the practice of the invention have neither the pharmacokinetic nor physical characteristics of extended release pharmaceutical dosage forms. Thus, a pharmaceutical composition useful in the practice of the invention, if in solid form, will disintegrate or dissolve rapidly, preferably within one hour of administration, and administration of a pharmaceutical composition useful in the practice of the invention will result in a rapid rise in the blood plasma concentration of 5-methyl-2-(2′-chloro-6′-fluoroanilino)phenylacetic acid. Preferably, the blood plasma concentration of 5-methyl-2-(2′-chloro-6′-fluoroanilino)phenylacetic acid will reach a maximum within two to six hours after oral administration and will then fall rapidly due to the relatively short (3 to 6 hour) half life of 5-methyl-2-(2′-chloro-6′-fluoroanilino)phenylacetic acid.

Cc1ccc(Nc2c(F)cccc2Cl)c(CC(=O)O)c1 [5-methyl-2-(2′-chloro-6′-fluoroanilino)phenylacetic acid]
chemical stability of the active agent in tablets [1]: more chemically stable | half-life [2]: 3 to 6 h
